Experimental data published in patent US4500526A, “Cephalosporin derivatives” (Bristol-Myers Company, priority 1983, dated 1985).
≈ marks a conversion by molar mass, not a printed value. Where two headings read alike, the source gives them in different places.

How the values were obtained:
[1] = system: Penicillinsensitive S. aureus (5 strains); assay: MIC, two-fold serial agar dilution, group (G+)-Ia; type: cell-based; conditions: Staphylococcus aureus, read-out: Geometric Mean of MIC
Experimental: (§1) In the primary evaluation of the compounds of this invention, the Minimum Inhibitory Concentrations (MIC's) of the compounds were determined by the two-fold serial agar dilution method in Mueller-Hinton agar against 32 strains of test organisms in six groups. The sample weights of the test compounds were adjusted according to the purity of each compound, so as to give a more accurate measure of the MIC's.
(G+)Ia: Penicillinsensitive S. aureus (5 strains)

[2] = system: Cephalothinsensitive E. coli (2 strains), Kl. pneumoniae (1 strain) and Pr. mirabilis (2 strains); assay: MIC, two-fold serial agar dilution, group (G-)-Ia; type: cell-based; conditions: 5 strains, Mueller-Hinton agar, read-out: Geometric Mean of MIC
Experimental: as §1
(G-)Ia: Cephalothinsensitive E. coli (2 strains), Kl. pneumoniae (1
strain) and Pr. mirabilis (2 strains)

E. coli Juhl = assay: Median protective dose in infected mice; type: in vivo; conditions: Escherichia coli, im, immediately after intraperitoneal challenge, read-out: PD50
Experimental: (§2) The median protective dose (PD50) of some of the preferred compounds against various microorganisms was determined in mice by intramuscular administration of the test compound immediately after an intraperitoneal bacterial challenge.

S. aureus Smith = assay: Median protective dose in infected mice; type: in vivo; conditions: Staphylococcus aureus, im, immediately after intraperitoneal challenge, read-out: PD50
Experimental: as §2

P. aeruginosa A9843 = assay: Median protective dose in infected mice; type: in vivo; conditions: Pseudomonas aeruginosa, im, immediately after intraperitoneal challenge, read-out: PD50
Experimental: as §2

[3] = system: Cephalothinresistant E. coli (3 strains) and Kl. pneumoniae (3 strains); assay: MIC, two-fold serial agar dilution, group (G-)-Ib; type: cell-based; conditions: Escherichia coli, read-out: Geometric Mean of MIC
Experimental: as §1
(G-)Ib: Cephalothinresistant E. coli (3 strains) and Kl. pneumoniae (3

[4] = system: Ps. aeruginosa (6 strains); assay: MIC, two-fold serial agar dilution, group (G-)-III; type: cell-based; conditions: Pseudomonas aeruginosa, read-out: Geometric Mean of MIC
Experimental: as §1
(G-)III: Ps. aeruginosa (6 strains)

[5] = system: Penicillinresistant S. aureus (5 strains); assay: MIC, two-fold serial agar dilution, group (G+)-Ib; type: cell-based; conditions: Staphylococcus aureus, read-out: Geometric Mean of MIC
Experimental: as §1
(G+)Ib: Penicillinresistant S. aureus (5 strains)

[6] = Mouse blood levels after single intramuscular injection; type: in vivo, mice; conditions: in vivo, im, 20 mg/kg
Experimental: The absorption of some of the preferred compounds were determined in mice following a single intramuscular injection of the test compound (dissolved in 0.1M phosphate buffer; pH 7) at a dosage of 20 mg/kg. Blood samples were collected from the orbital sinuses into heparinized capillary tubes and assayed in Nutrient Agar (pH 6.6) using E. coli Ess-22-31 as the test organism. The blood levels at various time intervals, the half-life values (t1/2) and the areas under the curve (AUC) are shown in Table 2.

[7] = system: M. morganii (1 strain), Ent. cloacae (2 strains) and Ser. marcescens (2 strains); assay: MIC, two-fold serial agar dilution, group (G-)-II; type: cell-based; conditions: read-out: Geometric Mean of MIC
Experimental: as §1
(G-)II: M. morganii (1 strain), Ent. cloacae (2 strains) and Ser.

[8] = (G+)-Ia, 5 strains, Mueller-Hinton agar
[9] = (G+)-Ib, 5 strains, Mueller-Hinton agar
[10] = (G-)-II, 5 strains, Mueller-Hinton agar
[11] = (G-)-III, 6 strains, Mueller-Hinton agar

SMILES | MIC [1, 8] | MIC [2] | ED50 (E. coli Juhl) | ED50 (S. aureus Smith) | ED50 (P. aeruginosa A9843) | MIC [3] | MIC [5, 9] | AUC [6] | concentration at 10 min [6] | concentration at 20 min [6] | concentration at 0.5 h [6] | concentration at 40 min [6] | concentration at 50 min [6] | concentration at 1 h [6] | concentration at 1.5 h [6] | concentration at 2 h [6] | half-life [6] | MIC [7, 10] | MIC [4, 11] | MIC [7] | other results
Cc1nc2c[n+](CC3=C(C(=O)[O-])N4C(=O)C(NC(=O)/C(=N\OC5(C(=O)O)CCC5)c5csc(N)n5)[C@H]4SC3)ccc2s1 (stereo partly drawn) [Im, 7-[(Z)-2-(2-Aminothiazol-4-yl)-2-(1-carboxycyclobut-1-oxyimino)-acetamido]-3-(2-methyl-5-thiazolo[4,5-c]pyridinio)methyl-3-cephem-4-carboxylate] | 3.4 µg/mL (≈ 5.4 µM) | 0.027 µg/mL (≈ 0.0429 µM) | 0.1 mg/kg | 9.4 mg/kg | 9 mg/kg | 0.56 µg/mL (≈ 0.889 µM) | 8.8 µg/mL (≈ 14 µM) | 7100 ng·h/mL | 13000 ng/mL | 10000 ng/mL | 6900 ng/mL | 4800 ng/mL | 2700 ng/mL | 2000 ng/mL | 480 ng/mL | < 200 ng/mL | 16 min | 0.25 µg/mL (≈ 0.397 µM) | – | – | MIC [4]: 2.5 µg/mL (≈ 3.97 µM)
CO/N=C(\C(=O)NC1C(=O)N2C(C(=O)[O-])=C(C[n+]3ccc4sc(N)nc4c3)CSC12)c1csc(N)n1 (stereo not drawn) [In, 7-[(Z)-2-(2-Aminothiazol-4-yl)-2-methoxyiminoacetamido]-3-[{5-(2-aminothiazolo[4,5-c]pyridinio)}methyl]-3-cephem-4-carboxylate] | 0.32 µg/mL (≈ 0.585 µM) | 0.01 µg/mL (≈ 0.0183 µM) | < 0.01 mg/kg | 0.9 mg/kg | 2.8 mg/kg | 0.096 µg/mL (≈ 0.176 µM) | 0.72 µg/mL (≈ 1.32 µM) | 11000 ng·h/mL | 14000 ng/mL | 14000 ng/mL | 7600 ng/mL | 7000 ng/mL | 4400 ng/mL | 3900 ng/mL | 2900 ng/mL | 1000 ng/mL | 29 min | 0.17 µg/mL (≈ 0.311 µM) | 1.9 µg/mL (≈ 3.48 µM) | – | –
CO/N=C(\C(=O)NC1C(=O)N2C(C(=O)[O-])=C(C[n+]3ccc4sc(NC(C)=O)nc4c3)CS[C@H]12)c1csc(N)n1 (stereo partly drawn) [Ip, 7-[(Z)-2-(2-Aminothiazol-4-yl)-2-methoxyiminoacetamido]-3-(2-acetylamino-5-thiazolo[4,5-c]pyridinio)methyl-3-cephem-4-carboxylate] | 0.34 µg/mL (≈ 0.578 µM) | 0.037 µg/mL (≈ 0.0629 µM) | 0.29 mg/kg | 1 mg/kg | 16 mg/kg | 0.4 µg/mL (≈ 0.68 µM) | 0.8 µg/mL (≈ 1.36 µM) | 16000 ng·h/mL | 24000 ng/mL | 18000 ng/mL | 13000 ng/mL | 10000 ng/mL | 6800 ng/mL | 5500 ng/mL | 2500 ng/mL | 1400 ng/mL | 27 min | 0.68 µg/mL (≈ 1.16 µM) | 11 µg/mL (≈ 18.7 µM) | – | –
CO/N=C(\C(=O)NC1C(=O)N2C(C(=O)[O-])=C(C[n+]3ccc4sc(NC(=O)CN)nc4c3)CS[C@H]12)c1csc(N)n1 (stereo partly drawn) [Iq, 7-[(Z)-2-(2-Aminothiazol-4-yl)-2-methoxyiminoacetamido]-3-(2-glycylamino-5-thiazolo[4,5-c]pyridinio)methyl-3-cephem-4-carboxylate] | 0.92 µg/mL (≈ 1.52 µM) | 0.038 µg/mL (≈ 0.0629 µM) | 0.015 mg/kg | 1.8 mg/kg | 12 mg/kg | 0.61 µg/mL (≈ 1.01 µM) | 2.4 µg/mL (≈ 3.98 µM) | 16000 ng·h/mL | 15000 ng/mL | 17000 ng/mL | 12000 ng/mL | 11000 ng/mL | 9900 ng/mL | 8800 ng/mL | 3400 ng/mL | 1500 ng/mL | 28 min | – | 10 µg/mL (≈ 16.6 µM) | 0.69 µg/mL (≈ 1.14 µM) | –
CO/N=C(\C(=O)NC1C(=O)N2C(C(=O)[O-])=C(C[n+]3ccc4sc(NC(=O)OC)nc4c3)CS[C@H]12)c1csc(N)n1 (stereo partly drawn) [Is, 7-[(Z)-2-(2-Aminothiazol-4-yl)-2-methoxyiminoacetamido]-3-(2-methoxycarbonylamino-5-thiazolo[4,5-c]pyridinio)methyl-3-cephem-4-carboxylate] | 0.46 µg/mL (≈ 0.761 µM) | 0.038 µg/mL (≈ 0.0628 µM) | 0.018 mg/kg | 1.2 mg/kg | 10 mg/kg | 0.69 µg/mL (≈ 1.14 µM) | 0.8 µg/mL (≈ 1.32 µM) | 13000 ng·h/mL | 19000 ng/mL | 18000 ng/mL | 14000 ng/mL | 6700 ng/mL | 4600 ng/mL | 4600 ng/mL | 2200 ng/mL | 1100 ng/mL | 26 min | – | 14 µg/mL (≈ 23.2 µM) | 0.6 µg/mL (≈ 0.992 µM) | –
CO/N=C(\C(=O)NC1C(=O)N2C(C(=O)[O-])=C(C[n+]3ccc4sc(NC(=O)N5CCCC5)nc4c3)CS[C@H]12)c1csc(N)n1 (stereo partly drawn) [It, 7-[(Z)-2-(2-Aminothiazol-4-yl)-2-methoxyiminoacetamido]-3-[2-(pyrrolidin-1-ylcarbonylamino)-5-thiazolo[4,5-c]pyridinio]methyl-3-cephem-4-carboxylate] | 0.53 µg/mL (≈ 0.823 µM) | 0.3 µg/mL (≈ 0.466 µM) | 0.2 mg/kg | 1.9 mg/kg | > 25 mg/kg | 0.92 µg/mL (≈ 1.43 µM) | – | 13000 ng·h/mL | 19000 ng/mL | 18000 ng/mL | 11000 ng/mL | 7800 ng/mL | 6600 ng/mL | 5400 ng/mL | 2100 ng/mL | 890 ng/mL | 24 min | 2.8 µg/mL (≈ 4.35 µM) | 34 µg/mL (≈ 52.8 µM) | – | MIC [5]: 1.6 µg/mL (≈ 2.49 µM)
CO/N=C(\C(=O)NC1C(=O)N2C(C(=O)[O-])=C(C[n+]3ccc4sc(N(C)C)nc4c3)CS[C@H]12)c1csc(N)n1 (stereo partly drawn) [Iu, 7-[(Z)-2-(2-Aminothiazol-4-yl)-2-methoxyiminoacetamido]-3-(2-dimethylamino-5-thiazolo[4,5-c]pyridinio)methyl-3-cephem-4-carboxylate] | 0.46 µg/mL (≈ 0.8 µM) | 0.012 µg/mL (≈ 0.0209 µM) | 0.013 mg/kg | 0.48 mg/kg | 4.6 mg/kg | 0.11 µg/mL (≈ 0.191 µM) | 0.8 µg/mL (≈ 1.39 µM) | 9800 ng·h/mL | 18000 ng/mL | 13000 ng/mL | 9600 ng/mL | 5500 ng/mL | 3400 ng/mL | 2600 ng/mL | 1000 ng/mL | 340 ng/mL | 19 min | – | 6.3 µg/mL (≈ 11 µM) | 0.23 µg/mL (≈ 0.4 µM) | –
CO/N=C(\C(=O)NC1C(=O)N2C(C(=O)[O-])=C(C[n+]3ccc4sc(C(=O)O)nc4c3)CS[C@H]12)c1csc(N)n1 (stereo partly drawn) [Iv, 7-[(Z)-2-(2-Aminothiazol-4-yl)-2-methoxyiminoacetamido]-3-(2-carboxy-5-thiazolo[4,5-c]pyridinio)methyl-3-cephem-4-carboxylate] | – | 0.014 µg/mL (≈ 0.0243 µM) | 0.024 mg/kg | 2.6 mg/kg | 21 mg/kg | 1.2 µg/mL (≈ 2.08 µM) | 3.1 µg/mL (≈ 5.39 µM) | 10000 ng·h/mL | 17000 ng/mL | 16000 ng/mL | 10000 ng/mL | 5900 ng/mL | 4300 ng/mL | 3000 ng/mL | 1200 ng/mL | < 200 ng/mL | 19 min | 0.69 µg/mL (≈ 1.2 µM) | 5.7 µg/mL (≈ 9.9 µM) | – | MIC [1]: 1.6 µg/mL (≈ 2.78 µM)
CO/N=C(\C(=O)NC1C(=O)N2C(C(=O)[O-])=C(C[n+]3ccc4sc(C=O)nc4c3)CSC12)c1csc(N)n1 (stereo not drawn) [Iw, 7-[(Z)-2-(2-Aminothiazol-4-yl)-2-methoxyiminoacetamido]-3-(2-formylthiazolo[4,5-c]pyridinio)methyl-3-cephem-4-carboxylate] | 0.53 µg/mL (≈ 0.947 µM) | 0.016 µg/mL (≈ 0.0286 µM) | 0.015 mg/kg | 1.3 mg/kg | 4.7 mg/kg | 0.17 µg/mL (≈ 0.304 µM) | – | 11000 ng·h/mL | 20000 ng/mL | 19000 ng/mL | 8900 ng/mL | 6600 ng/mL | 3900 ng/mL | 2000 ng/mL | 1000 ng/mL | 480 ng/mL | 19 min | – | 1.7 µg/mL (≈ 3.04 µM) | 0.2 µg/mL (≈ 0.357 µM) | MIC [5]: 1.6 µg/mL (≈ 2.86 µM)
